The kinase profiling compilation of Christmann-Franck et al. (2016)

What was measured:
Assay in all cases: KINOMEscan competition binding
Details in all cases: compound 10.0 µM
[1] = molecular target: CDK4 CCND1 (human) (UniProt P11802+P24385)
[2] = molecular target: CDKL1 (human) (UniProt Q00532)
[3] = molecular target: CDKL3 (human) (UniProt Q8IVW4)
[4] = molecular target: CDKL5 (human) (UniProt O76039)
[5] = molecular target: DDR1 (human) (UniProt Q08345)
[6] = molecular target: DSTYK (human) (UniProt Q6XUX3)
[7] = molecular target: DYRK2 (human) (UniProt Q92630)
[8] = molecular target: EIF2AK1 (human) (UniProt Q9BQI3)
[9] = molecular target: EPHB6 (human) (UniProt O15197)
[10] = molecular target: ERBB3 (human) (UniProt P21860)
[11] = molecular target: ERN1 (human) (UniProt O75460)
[12] = test system: FLT3 (human), P36888 [K663Q]
[13] = molecular target: HIPK3 (human) (UniProt Q9H422)
[14] = molecular target: HIPK4 (human) (UniProt Q8NE63)
[15] = molecular target: HUNK (human) (UniProt P57058)
[16] = molecular target: ICK (human) (UniProt Q9UPZ9)
[17] = molecular target: IRAK1 (human) (UniProt P51617)
[18] = molecular target: LRRK2 (human) (UniProt Q5S007)
[19] = molecular target: MAK (human) (UniProt P20794)
[20] = molecular target: MAP2K5 (human) (UniProt Q13163)
[21] = molecular target: MATK (human) (UniProt P42679)
[22] = molecular target: NEK11 (human) (UniProt Q8NG66)
[23] = molecular target: NEK3 (human) (UniProt P51956)
[24] = molecular target: NEK4 (human) (UniProt P51957)
[25] = molecular target: OXSR1 (human) (UniProt O95747)
[26] = molecular target: PI4KB (human) (UniProt Q9UBF8)
[27] = molecular target: PIK3CA (human) (UniProt P42336)
[28] = test system: PIK3CA (human), P42336 [E545A]
[29] = test system: PIK3CA (human), P42336 [E545K]
[30] = molecular target: PIP5K1C (human) (UniProt O60331)
[31] = molecular target: PKN3 (M.tuberculosis) (UniProt Q6P5Z2)
[32] = molecular target: PRPF4B (human) (UniProt Q13523)
[33] = molecular target: ROCK1 (human) (UniProt Q13464)
[34] = molecular target: RPS6KB1 (human) (UniProt P23443)
[35] = molecular target: SBK1 (human) (UniProt Q52WX2)
[36] = molecular target: STK32A (human) (UniProt Q8WU08)
[37] = molecular target: STK38 (human) (UniProt Q15208)
[38] = molecular target: TBK1 (human) (UniProt Q9UHD2)
[39] = molecular target: TIE1 (human) (UniProt P35590)
[40] = molecular target: TRPM6 (human) (UniProt Q9BX84)

PIK3CA (human), P42336 [E545K], sequence (P42336 whole entry E545K, looked up): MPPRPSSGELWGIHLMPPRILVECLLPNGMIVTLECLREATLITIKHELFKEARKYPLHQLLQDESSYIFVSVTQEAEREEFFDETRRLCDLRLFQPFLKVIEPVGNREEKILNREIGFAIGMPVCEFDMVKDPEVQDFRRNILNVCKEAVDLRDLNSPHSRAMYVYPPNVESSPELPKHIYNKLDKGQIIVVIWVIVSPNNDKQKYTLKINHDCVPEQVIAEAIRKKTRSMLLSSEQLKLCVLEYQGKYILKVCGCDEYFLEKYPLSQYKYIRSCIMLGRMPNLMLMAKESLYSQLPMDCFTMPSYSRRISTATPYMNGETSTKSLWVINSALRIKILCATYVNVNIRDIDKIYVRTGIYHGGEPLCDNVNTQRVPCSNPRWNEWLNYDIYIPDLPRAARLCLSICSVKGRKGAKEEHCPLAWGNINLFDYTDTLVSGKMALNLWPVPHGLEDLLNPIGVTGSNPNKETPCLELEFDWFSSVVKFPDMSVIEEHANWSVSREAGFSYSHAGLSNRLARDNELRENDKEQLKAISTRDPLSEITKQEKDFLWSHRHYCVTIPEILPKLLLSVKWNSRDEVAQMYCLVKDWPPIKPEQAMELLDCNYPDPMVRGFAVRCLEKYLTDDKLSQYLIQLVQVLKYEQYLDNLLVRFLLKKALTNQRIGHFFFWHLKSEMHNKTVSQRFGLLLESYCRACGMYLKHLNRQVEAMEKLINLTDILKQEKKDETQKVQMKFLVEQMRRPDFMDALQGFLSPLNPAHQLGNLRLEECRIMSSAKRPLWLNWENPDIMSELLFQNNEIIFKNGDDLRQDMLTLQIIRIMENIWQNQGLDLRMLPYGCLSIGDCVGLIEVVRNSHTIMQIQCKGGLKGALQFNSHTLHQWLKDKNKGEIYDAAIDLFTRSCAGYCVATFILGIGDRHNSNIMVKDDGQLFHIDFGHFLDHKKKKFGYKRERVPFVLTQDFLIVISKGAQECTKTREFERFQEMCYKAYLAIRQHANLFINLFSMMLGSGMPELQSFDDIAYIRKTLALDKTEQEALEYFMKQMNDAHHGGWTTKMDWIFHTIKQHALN
SBK1 (human), sequence (Q52WX2 whole entry, looked up): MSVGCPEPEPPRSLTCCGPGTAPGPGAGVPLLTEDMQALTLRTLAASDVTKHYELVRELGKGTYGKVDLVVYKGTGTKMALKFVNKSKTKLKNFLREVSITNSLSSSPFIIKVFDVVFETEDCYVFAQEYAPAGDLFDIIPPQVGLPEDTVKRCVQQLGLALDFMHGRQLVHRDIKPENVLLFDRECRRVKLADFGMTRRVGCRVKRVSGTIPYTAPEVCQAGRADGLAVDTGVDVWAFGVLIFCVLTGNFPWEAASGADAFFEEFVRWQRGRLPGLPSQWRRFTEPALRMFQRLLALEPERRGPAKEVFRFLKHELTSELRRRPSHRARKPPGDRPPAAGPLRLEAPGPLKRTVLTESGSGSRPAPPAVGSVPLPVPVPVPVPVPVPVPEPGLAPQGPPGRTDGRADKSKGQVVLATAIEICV
LRRK2 (human), sequence (Q5S007 whole entry, looked up): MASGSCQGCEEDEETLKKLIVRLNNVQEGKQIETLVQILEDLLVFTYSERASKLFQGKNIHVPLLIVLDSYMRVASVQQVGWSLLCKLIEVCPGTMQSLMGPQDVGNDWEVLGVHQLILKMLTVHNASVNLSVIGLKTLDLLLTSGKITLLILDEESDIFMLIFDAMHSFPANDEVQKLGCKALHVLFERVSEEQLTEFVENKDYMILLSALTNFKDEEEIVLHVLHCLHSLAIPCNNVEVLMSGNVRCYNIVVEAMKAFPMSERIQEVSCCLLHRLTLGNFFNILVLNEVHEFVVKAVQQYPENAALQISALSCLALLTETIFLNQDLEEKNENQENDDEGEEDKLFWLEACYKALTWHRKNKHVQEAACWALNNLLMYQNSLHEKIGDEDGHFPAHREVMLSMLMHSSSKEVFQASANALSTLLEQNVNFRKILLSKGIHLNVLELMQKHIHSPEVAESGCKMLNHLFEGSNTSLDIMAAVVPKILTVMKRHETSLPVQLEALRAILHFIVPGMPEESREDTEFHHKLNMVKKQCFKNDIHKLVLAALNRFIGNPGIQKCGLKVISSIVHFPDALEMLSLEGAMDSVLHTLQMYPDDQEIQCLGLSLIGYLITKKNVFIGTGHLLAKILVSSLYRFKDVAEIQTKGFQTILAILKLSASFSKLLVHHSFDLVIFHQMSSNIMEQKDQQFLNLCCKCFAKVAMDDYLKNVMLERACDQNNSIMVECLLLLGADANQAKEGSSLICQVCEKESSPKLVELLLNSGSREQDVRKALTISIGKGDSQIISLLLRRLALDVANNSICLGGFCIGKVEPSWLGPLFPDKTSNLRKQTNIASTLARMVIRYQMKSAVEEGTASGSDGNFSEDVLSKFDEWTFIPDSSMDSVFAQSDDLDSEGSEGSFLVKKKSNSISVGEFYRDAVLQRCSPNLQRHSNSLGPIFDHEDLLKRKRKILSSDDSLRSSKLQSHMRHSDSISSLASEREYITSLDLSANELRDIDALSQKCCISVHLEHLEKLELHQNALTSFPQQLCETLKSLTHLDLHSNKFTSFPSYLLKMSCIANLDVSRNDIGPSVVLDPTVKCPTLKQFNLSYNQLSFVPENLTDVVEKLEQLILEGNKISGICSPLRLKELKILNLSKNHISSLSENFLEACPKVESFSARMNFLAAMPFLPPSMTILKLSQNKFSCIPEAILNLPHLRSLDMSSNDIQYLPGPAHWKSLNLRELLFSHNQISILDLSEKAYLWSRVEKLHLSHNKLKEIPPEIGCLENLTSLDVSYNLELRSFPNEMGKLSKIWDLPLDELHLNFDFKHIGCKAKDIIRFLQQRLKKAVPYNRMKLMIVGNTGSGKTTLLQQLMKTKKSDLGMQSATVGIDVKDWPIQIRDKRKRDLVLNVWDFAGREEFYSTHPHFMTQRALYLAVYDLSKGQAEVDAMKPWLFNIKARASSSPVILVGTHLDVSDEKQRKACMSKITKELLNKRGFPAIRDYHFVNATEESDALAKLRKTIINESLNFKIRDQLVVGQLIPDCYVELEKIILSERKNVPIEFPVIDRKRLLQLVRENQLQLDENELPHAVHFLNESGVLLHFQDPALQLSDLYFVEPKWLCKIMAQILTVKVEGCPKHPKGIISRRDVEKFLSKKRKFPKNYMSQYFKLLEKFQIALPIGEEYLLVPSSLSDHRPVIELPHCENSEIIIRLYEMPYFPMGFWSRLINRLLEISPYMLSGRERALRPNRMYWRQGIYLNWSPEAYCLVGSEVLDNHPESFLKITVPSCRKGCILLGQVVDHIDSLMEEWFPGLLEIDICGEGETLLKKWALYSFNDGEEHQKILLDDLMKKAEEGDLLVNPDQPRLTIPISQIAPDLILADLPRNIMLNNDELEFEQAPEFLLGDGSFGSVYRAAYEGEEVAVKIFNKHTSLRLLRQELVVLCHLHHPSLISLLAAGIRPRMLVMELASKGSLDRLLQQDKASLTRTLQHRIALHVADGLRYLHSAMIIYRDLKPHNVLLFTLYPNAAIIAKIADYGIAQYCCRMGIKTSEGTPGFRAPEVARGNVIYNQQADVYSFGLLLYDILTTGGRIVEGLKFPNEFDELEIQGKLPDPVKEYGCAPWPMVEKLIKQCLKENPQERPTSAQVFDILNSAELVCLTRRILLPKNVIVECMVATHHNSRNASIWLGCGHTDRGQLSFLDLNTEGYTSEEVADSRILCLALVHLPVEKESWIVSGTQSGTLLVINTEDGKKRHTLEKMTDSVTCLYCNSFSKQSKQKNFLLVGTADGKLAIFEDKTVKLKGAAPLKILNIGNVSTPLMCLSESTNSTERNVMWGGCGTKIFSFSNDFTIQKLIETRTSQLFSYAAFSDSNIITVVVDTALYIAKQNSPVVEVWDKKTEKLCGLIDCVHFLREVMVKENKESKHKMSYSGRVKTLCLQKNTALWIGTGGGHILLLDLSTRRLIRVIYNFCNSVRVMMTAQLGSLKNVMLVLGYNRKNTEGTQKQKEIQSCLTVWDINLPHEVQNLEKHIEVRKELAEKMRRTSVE
NEK3 (human), sequence (P51956 whole entry, looked up): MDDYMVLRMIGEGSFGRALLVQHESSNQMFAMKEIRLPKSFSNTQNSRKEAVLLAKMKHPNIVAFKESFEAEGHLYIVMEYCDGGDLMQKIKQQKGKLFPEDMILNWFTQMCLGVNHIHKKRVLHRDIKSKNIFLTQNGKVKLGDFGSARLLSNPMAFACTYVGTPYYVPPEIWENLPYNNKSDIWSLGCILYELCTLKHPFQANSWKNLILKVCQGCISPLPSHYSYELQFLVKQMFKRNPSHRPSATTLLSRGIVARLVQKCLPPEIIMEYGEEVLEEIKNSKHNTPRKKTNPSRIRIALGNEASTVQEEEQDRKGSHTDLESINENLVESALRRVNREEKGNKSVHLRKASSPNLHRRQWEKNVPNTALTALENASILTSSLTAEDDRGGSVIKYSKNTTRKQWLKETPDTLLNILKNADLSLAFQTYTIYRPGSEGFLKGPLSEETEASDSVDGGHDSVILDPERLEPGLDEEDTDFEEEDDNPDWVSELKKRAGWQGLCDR
MATK (human), sequence (P42679 whole entry, looked up): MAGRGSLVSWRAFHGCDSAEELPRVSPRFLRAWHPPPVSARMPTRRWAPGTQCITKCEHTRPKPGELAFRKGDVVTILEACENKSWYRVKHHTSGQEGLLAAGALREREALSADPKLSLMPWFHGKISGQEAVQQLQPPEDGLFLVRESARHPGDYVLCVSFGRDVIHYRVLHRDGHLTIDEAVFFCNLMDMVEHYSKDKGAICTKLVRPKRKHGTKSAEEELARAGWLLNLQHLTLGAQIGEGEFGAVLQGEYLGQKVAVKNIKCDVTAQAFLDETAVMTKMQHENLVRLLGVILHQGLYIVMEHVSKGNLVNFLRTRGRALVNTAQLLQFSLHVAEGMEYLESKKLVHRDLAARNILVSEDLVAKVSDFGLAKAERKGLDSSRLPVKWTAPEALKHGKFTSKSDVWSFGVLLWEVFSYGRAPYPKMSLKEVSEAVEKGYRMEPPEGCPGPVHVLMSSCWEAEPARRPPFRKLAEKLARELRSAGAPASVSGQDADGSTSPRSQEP
PIK3CA (human), P42336 [E545A], sequence (P42336 whole entry E545A, looked up): as the sequence (P42336 whole entry E545K, looked up) above, with K545A counted along it
PIK3CA (human), sequence (P42336 whole entry, looked up): as the sequence (P42336 whole entry E545K, looked up) above, with K545E counted along it

Compound: N#Cc1c(NC(=O)c2cccc3ccccc23)sc2c1CCCC2
- kinase still bound, per cent of control [1]: 100%
- kinase still bound, per cent of control [2]: 73%
- kinase still bound, per cent of control [3]: 82%
- kinase still bound, per cent of control [4]: 70%
- kinase still bound, per cent of control [5]: 71%
- kinase still bound, per cent of control [6]: 100%
- kinase still bound, per cent of control [7]: 100%
- kinase still bound, per cent of control [8]: 100%
- kinase still bound, per cent of control [9]: 85%
- kinase still bound, per cent of control [10]: 100%
- kinase still bound, per cent of control [11]: 90%
- kinase still bound, per cent of control [12]: 93%
- kinase still bound, per cent of control [13]: 43%
- kinase still bound, per cent of control [14]: 100%
- kinase still bound, per cent of control [15]: 95%
- kinase still bound, per cent of control [16]: 81%
- kinase still bound, per cent of control [17]: 100%
- kinase still bound, per cent of control [18]: 94%
- kinase still bound, per cent of control [19]: 56%
- kinase still bound, per cent of control [20]: 100%
- kinase still bound, per cent of control [21]: 100%
- kinase still bound, per cent of control [22]: 100%
- kinase still bound, per cent of control [23]: 100%
- kinase still bound, per cent of control [24]: 76%
- kinase still bound, per cent of control [25]: 100%
- kinase still bound, per cent of control [26]: 100%
- kinase still bound, per cent of control [27]: 99%
- kinase still bound, per cent of control [28]: 80%
- kinase still bound, per cent of control [29]: 88%
- kinase still bound, per cent of control [30]: 100%
- kinase still bound, per cent of control [31]: 100%
- kinase still bound, per cent of control [32]: 100%
- kinase still bound, per cent of control [33]: 100%
- kinase still bound, per cent of control [34]: 90%
- kinase still bound, per cent of control [35]: 100%
- kinase still bound, per cent of control [36]: 81%
- kinase still bound, per cent of control [37]: 100%
- kinase still bound, per cent of control [38]: 88%
- kinase still bound, per cent of control [39]: 95%
- kinase still bound, per cent of control [40]: 100%
